Activity, viability and activity data for 17 molecules are collected here from ChEMBL document CHEMBL4052781, “Discovery and structure-activity relationship of auriculatone: A potent hepatoprotective agent against acetaminophen-induced liver injury” (Bioorg Med Chem Lett, 2017).

The source made the active and inactive calls. The rule behind the calls is not given here.

Series [1] deals with L02. Nature of the series: Hepatoprotective activity against APAP-induced cell injury in human HL-7702 cells assessed as increase in survival rate at 10 uM pre-incubated for 24 hrs before APAP addition and measured 6 hrs post APAP challenge by MTT assay. Format: functional, cell-based. In general terms: Tetrazolium assays rely on reduction of a dye to a coloured formazan, in cell work by metabolically active cells.

Series [2] deals with L02. Nature of the series: Effect on APAP-induced depletion of GSH levels in human HL-7702 cells assessed as GSH level at 10 uM by colorimetric method (reference value: 59.68 +/- 1.16 au). Format: functional.
Series [3] deals with L02. Description: Effect on APAP-induced depletion of GSH levels in human HL-7702 cells assessed as GSH level at 1 uM by colorimetric method (reference value: 59.68 +/- 1.16 au). Format: functional.
A further series concerns the target Cytochrome P450 3A4 (Homo sapiens, UniProt P08684). Description: Inhibition of CYP3A4 in human HL-7702 cells assessed as reduction in metabolic conversion of nifedipine to dehydronifedipine by LC-MS/MS method. Format: ADME, cell-based.
The test system of series [4] is L02. Description: Hepatoprotective activity against APAP-induced cell injury in human HL-7702 cells assessed as increase in survival rate at 1 uM pre-incubated for 24 hrs before APAP addition and measured 6 hrs post APAP challenge by MTT assay. Format: functional, cell-based.
Series [5] deals with L02. Description: Hepatoprotective activity against APAP-induced cell injury in human HL-7702 cells assessed as survival rate at 2.5 uM pre-incubated for 24 hrs before APAP addition and measured 6 hrs post APAP challenge by MTT assay (reference value: 60.49 +/- 0.28%). The format is functional. As to conditions: read-out: Survival.
For series [6], the system named is L02. Nature of the series: Effect on APAP-induced depletion of GSH levels in human HL-7702 cells assessed as GSH level at 0.1 uM by colorimetric method (reference value: 59.68 +/- 1.16 au). Format: functional.
Another series has as its target CYP3A4 (Homo sapiens, UniProt P08684). Nature of the series: Inhibition of CYP3A4 in human HL-7702 cells assessed as assessed as remaining enzyme activity by measuring reduction in metabolic conversion of nifedipine to dehydronifedipine at 10 uM by LC-MS/MS method. Format: ADME, cell-based. As to conditions: probe nifedipine, read-out: Activity.
The subject of series [7] is L02. Nature of the series: Hepatoprotective activity against APAP-induced cell injury in human HL-7702 cells assessed as survival rate at 5 uM pre-incubated for 24 hrs before APAP addition and measured 6 hrs post APAP challenge by MTT assay (reference value: 60.49 +/- 0.28%). Format: functional. To be noted: read-out: Survival.
Series [8] has as its system L02. Nature of the series: Hepatoprotective activity against APAP-induced cell injury in human HL-7702 cells assessed as survival rate at 0.625 uM pre-incubated for 24 hrs before APAP addition and measured 6 hrs post APAP challenge by MTT assay (reference value: 60.49 +/- 0.28%). As to conditions: read-out: Survival. Format: functional.
The test system of series [9] is L02. Description: Hepatoprotective activity against APAP-induced cell injury in human HL-7702 cells assessed as survival rate at 10 uM pre-incubated for 24 hrs before APAP addition and measured 6 hrs post APAP challenge by MTT assay (reference value: 59.13%). As to conditions: read-out: Survival. The format is functional.
Series [10] concerns L02. Description: Hepatoprotective activity against APAP-induced cell injury in human HL-7702 cells assessed as survival rate at 10 uM pre-incubated for 24 hrs before APAP addition and measured 6 hrs post APAP challenge by MTT assay (reference value: 60.49 +/- 0.28%). As to conditions: read-out: Survival. The format is functional.
Series [11] has as its system L02. Description: Hepatoprotective activity against APAP-induced cell injury in human HL-7702 cells assessed as increase in survival rate at 0.1 uM pre-incubated for 24 hrs before APAP addition and measured 6 hrs post APAP challenge by MTT assay. Format: functional, cell-based.
For series [12], the system named is L02. Description: Hepatoprotective activity against APAP-induced cell injury in human HL-7702 cells assessed as survival rate at 1.25 uM pre-incubated for 24 hrs before APAP addition and measured 6 hrs post APAP challenge by MTT assay (reference value: 60.49 +/- 0.28%). The format is functional. As to conditions: read-out: Survival.

Chain of CYP3A4 (P08684 whole entry): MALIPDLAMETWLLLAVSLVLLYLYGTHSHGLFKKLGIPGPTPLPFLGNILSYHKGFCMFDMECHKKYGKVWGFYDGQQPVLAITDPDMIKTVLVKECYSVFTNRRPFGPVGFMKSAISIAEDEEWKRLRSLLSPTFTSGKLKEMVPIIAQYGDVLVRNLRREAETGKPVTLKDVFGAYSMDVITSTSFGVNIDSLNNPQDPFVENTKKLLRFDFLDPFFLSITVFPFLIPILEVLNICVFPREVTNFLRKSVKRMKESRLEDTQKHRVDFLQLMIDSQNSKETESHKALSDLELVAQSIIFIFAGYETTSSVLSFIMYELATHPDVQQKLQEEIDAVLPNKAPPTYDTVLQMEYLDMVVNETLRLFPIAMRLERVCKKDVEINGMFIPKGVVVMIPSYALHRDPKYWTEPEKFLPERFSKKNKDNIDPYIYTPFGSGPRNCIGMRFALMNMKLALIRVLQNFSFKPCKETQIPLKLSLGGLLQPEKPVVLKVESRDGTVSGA
Chain of Cytochrome P450 3A4 (P08684 whole entry): as above

For `CC1(C)CC[C@]2(C(=O)O)CC[C@]3(C)C(=CC(=O)[C@@H]4[C@@]5(C)CC[C@H](O)C(C)(C)[C@@H]5CC[C@]43C)[C@@H]2C1`, the Activity entry in the series on L02 [1] was “Active”.
On the same count and under the same terms, then `CC1(C)CC[C@]2(C(=O)O)[C@H](O)C[C@]3(C)C(=CC[C@@H]4[C@@]5(C)CC[C@H](O)C(C)(C)[C@@H]5CC[C@]43C)[C@@H]2C1`, with “Active”.
For `CC1(C)CC[C@]2(C(=O)O)CC[C@]3(C)C(=CC[C@@H]4[C@@]5(C)CCC(=O)C(C)(C)[C@@H]5CC[C@]43C)[C@@H]2C1`, in the series on L02 [1], the Activity result was “Active”.
Take `CC1(C)CC[C@H]2C(=O)C[C@]3(C)C(=CC[C@@H]4[C@@]5(C)CC[C@H](O)C(C)(C)[C@@H]5CC[C@]43C)[C@@H]2C1`: the Activity is 54.37 a.u in the series on L02 [2], 55.62 a.u in the series with L02 [3], “Dose-dependent effect” at Cytochrome P450 3A4 and 55.93 a.u in the series on L02 [6]. The Activity entry in the series with L02 [4] was “Active”. In addition, the viability at 2.5 µM in the series on L02 [5] was 74.5%. Moreover, the activity at 10 µM on CYP3A4 was 66%. Further, the viability at 5 µM in the series on L02 [7] was 76%. In addition, the viability at 0.625 µM in the series on L02 [8] came to 66.8%. Also, the viability at 10 µM in the series with L02 [9] is 78.3 to 80%; in the series with L02 [10], 80.1%. In addition, the Activity entry with L02 [11] was “inactive”. Also, in the series with L02 [12], the viability at 1.25 µM was found to be 68.6%.
Turning to `CC1(C)CC[C@H]2CC[C@]3(C)C(=CC[C@@H]4[C@@]5(C)CC[C@H](O)C(C)(C)[C@@H]5CC[C@]43C)[C@@H]2C1`, the Activity entry in the series with L02 [1] and in the series with L02 [4] was “Active” in each case. Further, the viability at 10 µM in the series on L02 [9] amounted to 71.6%. The Activity result in the series on L02 [11] is “inactive”.
With `CC1(C)CC[C@]2(C(=O)O)CC[C@]3(C)C(=CC[C@@H]4[C@@]5(C)CC[C@H](O)C(C)(C)[C@@H]5CC[C@]43C)[C@@H]2C1` [OLEANOLIC_ACID], the viability at 10 µM with L02 [9] was found to be 68.5%.
On to `CC(=O)O[C@H]1CC[C@]2(C)[C@H]3CC=C4[C@@H]5CC(C)(C)CC[C@H]5C(=O)C[C@@]4(C)[C@]3(C)CC[C@H]2C1(C)C`, for which, in the series with L02 [1], the Activity entry was “Active”. The viability at 10 µM with L02 [9] amounted to 67.1%. Also, the Activity entry with L02 [11] was “inactive”.
On to `CC(=O)N[C@@H](CS)C(=O)O` [ACETYLCYSTEINE], for which the Activity in the series on L02 [2] came out at 102.49 a.u. Besides, in the series on L02 [1], the Activity result was “Active”. The viability at 10 µM with L02 [10] came to 82.3%.
As for `CC1(C)CC[C@H]2[C@@H](O)C[C@]3(C)C(=CC[C@@H]4[C@@]5(C)CC[C@H](O)C(C)(C)[C@@H]5CC[C@]43C)[C@@H]2C1`, the Activity entry in the series with L02 [1] is “Active”. The viability at 10 µM in the series on L02 [9] was determined as 62.9%. The Activity entry in the series on L02 [11] is “inactive”.
On to `CC1(C)CC[C@]2(C(=O)O)CC[C@]3(C)C(=CC=C4[C@@]5(C)CC[C@H](O)C(C)(C)[C@@H]5CC[C@]43C)[C@@H]2C1`, for which, in the series on L02 [1], the Activity result was “Active”.
In the case of `CC1(C)CC[C@H]2[C@H](O)C[C@]3(C)C(=CC[C@@H]4[C@@]5(C)CC[C@H](O)C(C)(C)[C@@H]5CC[C@]43C)[C@@H]2C1`, the Activity result in the series on L02 [1] was “Active”. For the same molecule, in the series with L02 [9], the viability at 10 µM was determined as 65.5%. Also, in the series with L02 [11], the Activity result is “inactive”.
Consider `CC1(C)CC[C@]2(CO)CC[C@]3(C)C(=CC[C@@H]4[C@@]5(C)CC[C@H](O)C(C)(C)[C@@H]5CC[C@]43C)[C@@H]2C1`, for which the Activity result with L02 [1] is “Active”.
Consider `CC1(C)CC[C@H]2C(=O)C[C@]3(C)C(=CC[C@@H]4[C@@]5(C)CCC(=O)C(C)(C)[C@@H]5CC[C@]43C)[C@@H]2C1`, for which the Activity entry with L02 [1] and with L02 [4] was “Active” throughout. Moreover, the viability at 10 µM with L02 [9] was 71.2%. Also, the Activity entry with L02 [11] was “inactive”.
`CC1(C)CC[C@@]23CC[C@@]4(C)[C@]5(C)CC[C@H]6C(C)(C)[C@@H](O)CC[C@]6(C)C5=CC(=O)[C@]4(OC2=O)[C@@H]3C1`: the Activity result in the series with L02 [1] was “Active”.
For the molecule `CC1(C)CC[C@@H]2C(=O)C[C@]3(C)C(=CC[C@@H]4[C@@]5(C)CC[C@H](O)C(C)(C)[C@@H]5CC[C@]43C)[C@@H]2C1`, the viability at 10 µM with L02 [9] is 76 to 80%.
In the case of `CC1(C)CC[C@]2(C(=O)O)CC[C@]3(C)C(=C2C1)C=C[C@@H]1[C@@]2(C)CC[C@H](O)C(C)(C)[C@@H]2CC[C@]13C`, the Activity entry in the series on L02 [1] is “Active”.
With `CC1(C)CC[C@H]2C(=O)C[C@]3(C)[C@@]4(O[C@@H]4C[C@@H]4[C@@]5(C)CC[C@H](O)C(C)(C)[C@@H]5CC[C@]43C)[C@@H]2C1`, in the series on L02 [1], the Activity result is “Active”. Besides, the viability at 10 µM in the series on L02 [9] was found to be 65.7%. The Activity result with L02 [11] is “inactive”.
